From PubChem BioAssay (NCI)
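A five-concentration, 48-hour dose response in 96-well plates underlies each endpoint, interpolated linearly between surrounding concentrations. Definition used: TGI = concentration required for complete inhibition of growth.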

How the values were obtained:
Test in all cases: NCI-60 cell line screen, 48 h
[1] = tested on: 786-0 renal
[2] = tested on: MDA-MB-435
[3] = tested on: BT-549 breast
[4] = tested on: RPMI-8226 leukemia
[5] = tested on: SW-620 colon
[6] = tested on: HL-60(TB) leukemia
[7] = tested on: HCT-15 colon
[8] = tested on: LOX IMVI melanoma
[9] = tested on: SK-MEL-28 melanoma
[10] = tested on: SK-OV-3 ovarian
[11] = tested on: HOP-62 NSCLC
[12] = tested on: HS 578T breast
[13] = tested on: HOP-92 NSCLC
[14] = tested on: SNB-19 CNS
[15] = tested on: UACC-62 melanoma
[16] = tested on: CAKI-1 renal
[17] = tested on: EKVX NSCLC
[18] = tested on: IGROV1 ovarian
[19] = tested on: MOLT-4 leukemia
[20] = tested on: U251 CNS

Row | Compound | TGI [1] | TGI [2] | TGI [3] | TGI [4] | TGI [5] | TGI [6] | TGI [7] | TGI [8] | TGI [9] | TGI [10] | TGI [11] | TGI [12] | TGI [13] | TGI [14] | TGI [15] | TGI [16] | TGI [17] | TGI [18] | TGI [19] | TGI [20]
1 | CCC1c2[nH]c3ccccc3c2C[C@H]2C(=O)NC(CCCCNC(=O)OC(C)(C)C)C(=O)N12 (stereo not given in full) | 81.3 µM | 44.3 µM | 58.2 µM | 63.3 µM | > 100 µM | 59.6 µM | > 100 µM | 54.7 µM | > 100 µM | > 100 µM | > 100 µM | 76.2 µM | 94.4 µM | > 100 µM | 49.2 µM | 70.4 µM | > 100 µM | > 100 µM | 43.5 µM | > 100 µM
2 | CCCC(=O)NC(C(=O)OCC)(N1CCOCC1)C(F)(F)F (stereo not given) | > 100 µM | > 100 µM | > 100 µM | > 100 µM | > 100 µM | > 100 µM | > 100 µM | > 100 µM | > 100 µM | > 100 µM | > 100 µM | > 100 µM | > 100 µM | > 100 µM | > 100 µM | > 100 µM | > 100 µM | > 100 µM | > 100 µM | > 100 µM
3 | CCOC(=O)c1[nH]cc(C)c1-c1c[nH]c2ccccc12 | > 100 µM | > 100 µM | 93.8 µM | 41.9 µM | > 100 µM | > 100 µM | > 100 µM | 40.2 µM | > 100 µM | > 100 µM | > 100 µM | 61.7 µM | > 74.4 µM | > 100 µM | > 100 µM | > 100 µM | > 100 µM | > 100 µM | 27.9 µM | > 100 µM
4 | C=C(C)[C@@H]1CCC2=C[C@H](OC2=O)[C@@]2(C)C[C@@H]2C(=O)/C=C(/C)C(=O)[C@H]1OC(C)=O | 30.3 µM | > 65.2 µM | 27.4 µM | 23.5 µM | > 44.6 µM | > 100 µM | > 55.7 µM | 41.3 µM | 52.9 µM | > 84.7 µM | 97.6 µM | 88.6 µM | > 93.3 µM | > 73.7 µM | > 73 µM | 42 µM | > 49.8 µM | > 69.3 µM | > 39.4 µM | > 68 µM
5 | CC[C@@H]1CC[C@@H]2[C@H](CC[C@]3(C)[C@@H](O)CC[C@@H]23)[C@H]1CO | > 100 µM | > 100 µM | > 100 µM | > 100 µM | > 100 µM | 85.8 µM | > 100 µM | > 100 µM | > 100 µM | > 100 µM | > 100 µM | > 100 µM | > 100 µM | > 100 µM | > 100 µM | > 100 µM | > 100 µM | > 100 µM | > 100 µM | > 100 µM
6 | COC(=O)c1cnn2c1ccc1ccccc12 | > 100 µM | > 100 µM | > 100 µM | > 100 µM | > 100 µM | > 100 µM | > 100 µM | > 100 µM | > 100 µM | > 100 µM | > 100 µM | > 100 µM | > 100 µM | > 100 µM | > 100 µM | > 100 µM | > 100 µM | > 100 µM | > 100 µM | > 100 µM
